From PubChem BioAssay (NCI)
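GI50 = concentration required for 50% inhibition of growth. At the TGI there is no net growth.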

What was measured:
Assay in all cases: growth of human tumour cells (NCI), 384-well format
K-562 leukemia = test system: K-562 leukemia
786-0 renal = test system: 786-0 renal
UACC-62 melanoma = test system: UACC-62 melanoma
HCT-15 colon = test system: HCT-15 colon
SK-MEL-5 melanoma = test system: SK-MEL-5 melanoma
MDA-MB-231 breast = test system: MDA-MB-231 breast
SW-620 colon = test system: SW-620 colon
HOP-62 NSCLC = test system: HOP-62 NSCLC
HS 578T breast = test system: HS 578T breast
ACHN renal = test system: ACHN renal
RXF 393 renal = test system: RXF 393 renal
HCC-2998 colon = test system: HCC-2998 colon
T-47D breast = test system: T-47D breast
UACC-257 melanoma = test system: UACC-257 melanoma
IGROV1 ovarian = test system: IGROV1 ovarian
HL-60(TB) leukemia = test system: HL-60(TB) leukemia
KM12 colon = test system: KM12 colon
MOLT-4 leukemia = test system: MOLT-4 leukemia
CAKI-1 renal = test system: CAKI-1 renal
OVCAR-5 ovarian = test system: OVCAR-5 ovarian
SK-MEL-28 melanoma = test system: SK-MEL-28 melanoma
NCI-H226 lung = test system: NCI-H226 lung
SNB-75 CNS = test system: SNB-75 CNS
PC-3 prostate = test system: PC-3 prostate
U251 glioblastoma = test system: U251 glioblastoma
HOP-92 NSCLC = test system: HOP-92 NSCLC
M14 melanoma = test system: M14 melanoma
HCT-116 colon = test system: HCT-116 colon
SF-268 CNS = test system: SF-268 CNS

CNC(=O)c1cc(Oc2ccc(NC(=O)Nc3cc(C(C)(C)C)nn3-c3ccc4ncccc4c3)c(F)c2)ccn1
TGI (K-562 leukemia): > 100000 nM | GI50 ([…]-0 renal): 1470 nM | TGI (786-0 renal): 5190 nM | GI50 (UACC-62 melanoma): 32.8 nM | TGI (UACC-62 melanoma): 612 nM | GI50 (HCT-15 colon): 2340 nM | TGI (HCT-15 colon): 6880 nM | GI50 (SK-MEL-5 melanoma): 552 nM | TGI (SK-MEL-5 melanoma): 1830 nM | GI50 (MDA-MB-231 breast): 558 nM | TGI (MDA-MB-231 breast): > 100000 nM | GI50 (SW-620 colon): 2740 nM | TGI (SW-620 colon): 5710 nM | GI50 (HOP-62 NSCLC): 1740 nM | TGI (HOP-62 NSCLC): 3970 nM | GI50 (HS 578T breast): 547 nM | TGI (HS 578T breast): 1640 nM | GI50 (ACHN renal): 446 nM | TGI (ACHN renal): 4260 nM | GI50 (RXF 393 renal): 499 nM | TGI (RXF 393 renal): 1570 nM | GI50 (HCC-2998 colon): 2140 nM | TGI (HCC-2998 colon): 4730 nM | GI50 (T-47D breast): 853 nM | TGI (T-47D breast): 4820 nM | GI50 (UACC-257 melanoma): 358 nM | TGI (UACC-257 melanoma): 1710 nM | GI50 (IGROV1 ovarian): 442 nM | TGI (IGROV1 ovarian): 7530 nM | GI50 (HL-60(TB) leukemia): 724 nM | TGI (HL-60(TB) leukemia): 1530 nM | TGI (KM12 colon): 6360 nM | GI50 (MOLT-4 leukemia): 1540 nM | TGI (MOLT-4 leukemia): 2940 nM | GI50 (CAKI-1 renal): 359 nM | TGI (CAKI-1 renal): > 100000 nM | GI50 (OVCAR-5 ovarian): 884 nM | TGI (OVCAR-5 ovarian): 58000 nM | GI50 (SK-MEL-28 melanoma): 310 nM | TGI (SK-MEL-28 melanoma): 1200 nM | GI50 (NCI-H226 lung): 109 nM | TGI (NCI-H226 lung): > 100000 nM | GI50 (SNB-75 CNS): 1070 nM | TGI (SNB-75 CNS): 2280 nM | GI50 (PC-3 prostate): 3160 nM | TGI (PC-3 prostate): 9470 nM | GI50 (U251 glioblastoma): 1930 nM | TGI (U251 glioblastoma): 4950 nM | GI50 (HOP-92 NSCLC): 605 nM | TGI (HOP-92 NSCLC): > 100000 nM | GI50 (M14 melanoma): 97.7 nM | TGI (M14 melanoma): 1020 nM | GI50 (HCT-116 colon): 937 nM | TGI (HCT-116 colon): > 100000 nM | GI50 (SF-268 CNS): 192 nM | TGI (SF-268 CNS): 752 nM
